Laboratory results taken from patent US9173884B2, “Inhibitors of phosphodiesterase 11 (PDE11)” (TRUSTEES OF BOSTON COLLEGE, priority 2011, dated 2015).
One block for each molecule: values may come before it.

Key:
normal T cells = assay: Apoptosis of normal T cells; format: cell-based; conditions: for cell viability of normal T cells: with or without rolipram
REC-1 cells = assay: Apoptosis of REC-1 B cell leukemia cell line; format: cell-based; conditions: for effect on apoptosis, in words: REC-1
[1] = test system: chronic lymphocytic leukemia cells from a second leukemia patient; assay: Apoptosis of chronic lymphocytic leukemia cells, second patient (JM168); format: cell-based, human
Source text: (§1) In collaboration with other researchers, the effect of different PDE inhibitors on chronic lymphocytic leukemia cells was investigated. The lymphocytic leukemia cells were obtained from individual patients and cannot be maintained in cell culture.

[2] = test system: chronic lymphocytic leukemia cells from a third leukemia patient; assay: Apoptosis of chronic lymphocytic leukemia cells, third patient (JM167); format: cell-based, human
Source text: as §1

JVM-2 cells = assay: Apoptosis of JVM-2 B cell leukemia cell line; format: cell-based; conditions: for effect on apoptosis, in words: JVM-2
[3] = test system: chronic lymphocytic leukemia cells from a first leukemia patient; assay: Apoptosis of chronic lymphocytic leukemia cells, first patient; format: cell-based, human; design: % apoptosis: dose or concentration left out as unconfirmed; conditions: for effect on apoptosis, in words: first patient, high background apoptosis
Source text: as §1

PDE10A1 [4] = biological target: T1, PDE10A1 (Homo sapiens (Human), UniProt Q9Y233); assay: In vitro enzyme assay, PDE10; conditions: read-out: IC50 PDE10; PDE10A, 30 nM cAMP
T1 sequence (Q9Y233 other isoform, or with tags, fused parts or gaps): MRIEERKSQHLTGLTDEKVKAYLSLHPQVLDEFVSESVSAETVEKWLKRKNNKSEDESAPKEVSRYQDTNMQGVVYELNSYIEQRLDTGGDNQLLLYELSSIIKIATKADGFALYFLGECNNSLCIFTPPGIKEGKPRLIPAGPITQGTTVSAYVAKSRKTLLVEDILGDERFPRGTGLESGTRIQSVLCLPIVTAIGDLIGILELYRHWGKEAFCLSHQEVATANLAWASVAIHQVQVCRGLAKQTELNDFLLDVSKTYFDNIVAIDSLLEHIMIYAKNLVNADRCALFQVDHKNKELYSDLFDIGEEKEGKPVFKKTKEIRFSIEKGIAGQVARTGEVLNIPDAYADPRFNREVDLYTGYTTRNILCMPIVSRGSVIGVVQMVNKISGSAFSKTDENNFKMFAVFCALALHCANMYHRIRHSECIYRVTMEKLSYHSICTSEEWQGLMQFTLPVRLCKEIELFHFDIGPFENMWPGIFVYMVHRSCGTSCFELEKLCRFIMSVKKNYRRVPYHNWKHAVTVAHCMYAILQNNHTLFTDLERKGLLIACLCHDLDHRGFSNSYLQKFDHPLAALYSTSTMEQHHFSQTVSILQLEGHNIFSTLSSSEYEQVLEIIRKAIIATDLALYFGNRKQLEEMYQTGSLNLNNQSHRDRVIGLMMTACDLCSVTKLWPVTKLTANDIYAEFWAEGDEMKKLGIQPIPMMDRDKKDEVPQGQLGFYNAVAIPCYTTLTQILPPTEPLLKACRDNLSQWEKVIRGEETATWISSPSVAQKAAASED

PDE5A1 = PDE5A1 (Homo sapiens (Human), UniProt O76074); assay: In vitro enzyme assay, PDE5; format: biochemical; conditions: PDE5A, 500 nM cGMP
PDE6C = PDE6C (Homo sapiens (Human), UniProt P51160); assay: In vitro enzyme assay, PDE6; format: biochemical; conditions: […] cGMP
PDE6C, sequence (P51160 whole entry): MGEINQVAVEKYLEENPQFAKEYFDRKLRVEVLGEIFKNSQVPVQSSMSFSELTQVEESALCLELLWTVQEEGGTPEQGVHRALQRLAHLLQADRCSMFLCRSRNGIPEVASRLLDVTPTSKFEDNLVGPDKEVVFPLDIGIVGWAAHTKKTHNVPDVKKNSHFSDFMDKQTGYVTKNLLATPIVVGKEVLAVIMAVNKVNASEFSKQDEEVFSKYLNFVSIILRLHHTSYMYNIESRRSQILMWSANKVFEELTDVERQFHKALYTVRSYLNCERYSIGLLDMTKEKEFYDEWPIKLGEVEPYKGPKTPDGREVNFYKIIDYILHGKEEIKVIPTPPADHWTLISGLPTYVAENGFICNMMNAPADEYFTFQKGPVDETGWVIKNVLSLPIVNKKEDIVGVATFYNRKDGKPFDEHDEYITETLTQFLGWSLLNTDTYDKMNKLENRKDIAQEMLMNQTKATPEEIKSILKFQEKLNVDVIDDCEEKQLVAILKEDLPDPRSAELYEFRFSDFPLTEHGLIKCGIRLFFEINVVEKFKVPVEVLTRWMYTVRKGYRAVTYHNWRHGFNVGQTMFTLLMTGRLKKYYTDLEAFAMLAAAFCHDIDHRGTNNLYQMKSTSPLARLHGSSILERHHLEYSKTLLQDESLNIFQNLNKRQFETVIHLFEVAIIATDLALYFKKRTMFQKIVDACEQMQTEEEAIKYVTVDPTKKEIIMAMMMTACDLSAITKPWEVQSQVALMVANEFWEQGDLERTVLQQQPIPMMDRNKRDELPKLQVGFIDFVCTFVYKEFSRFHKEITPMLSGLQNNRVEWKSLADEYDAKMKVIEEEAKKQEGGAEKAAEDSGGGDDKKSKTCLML

PDE7A = PDE7A (Homo sapiens (Human), UniProt Q13946); assay: In vitro enzyme assay, PDE7; format: biochemical; conditions: 15 nM cAMP
PDE7A, sequence (Q13946 whole entry): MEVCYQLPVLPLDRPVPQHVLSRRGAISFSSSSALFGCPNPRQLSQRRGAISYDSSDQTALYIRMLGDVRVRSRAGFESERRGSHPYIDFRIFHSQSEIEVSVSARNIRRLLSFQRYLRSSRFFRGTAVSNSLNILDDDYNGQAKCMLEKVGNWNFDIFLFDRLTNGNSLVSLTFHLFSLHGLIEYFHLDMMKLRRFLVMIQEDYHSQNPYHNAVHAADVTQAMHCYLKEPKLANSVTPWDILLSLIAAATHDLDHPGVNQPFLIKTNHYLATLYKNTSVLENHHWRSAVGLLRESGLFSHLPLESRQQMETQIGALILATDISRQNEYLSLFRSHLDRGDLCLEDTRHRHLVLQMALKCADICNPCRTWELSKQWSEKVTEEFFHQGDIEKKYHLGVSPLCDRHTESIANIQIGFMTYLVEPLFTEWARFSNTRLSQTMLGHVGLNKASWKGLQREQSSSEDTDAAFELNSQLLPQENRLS

H295R cells [5] = assay: ATF-1 phosphorylation immunoblot in H295R cells; format: cell-based, human
Experimental: (§2) Human NCI-H295R cells were maintained as described (33). HeLa cells were maintained in DMEM with 10% FBS. 90% confluent cells in 12-well dishes were incubated in serum-starved media for 1 h, then in 0.5 ml serum-starved media with 20 µM compounds or 0.2% DMSO for 2 h in the absence or presence of 10 μM forskolin (Sigma Aldrich). Media was collected and cAMP levels were measured as described (33), using a cAMP ELISA kit (Enzo). cAMP levels were normalized to protein content measured using a BCA Protein Assay Kit (Pierce). Immunoblot analysis of protein lysates was performed as described (34), using phospho-CREB(9198), Akt(4685), or CREB(9197) primary antibodies (Cell Signaling Technology) and goat anti-rabbit IgG-HRP secondary antibody (sc-2030, Santa Cruz).

H295R cells [6] = assay: cAMP assay in H295R adrenocortical cells; format: cell-based, human; conditions: 20 μM, 2 h, absence or presence of 10 μM forskolin
Experimental: as §2

HeLa cells [7] = assay: cAMP assay in HeLa cells; format: cell-based; conditions: as for H295R cells (20 μM)
Experimental: as §2

H295R cells [8] = assay: Cortisol assay in H295R cells; format: cell-based, human; conditions: 20 μM, 24 h, forskolin
Experimental: H295R cells were treated with compounds as described in the cAMP assays, for 24 h. Media was collected and cortisol content was quantified using a Cortisol EIA Kit (Oxford Biomedical Research). Cortisol levels were normalized to protein concentrations in cell extracts, as described above.

HeLa cells [9] = assay: CREB phosphorylation immunoblot in HeLa cells; format: cell-based; conditions: as for H295R cells (20 μM)
Experimental: as §2

human PDE11A4 = human PDE11A4 (Homo sapiens (Human), UniProt Q9HCR9); assay: biochemical
human PDE11A4, sequence (Q9HCR9 whole entry): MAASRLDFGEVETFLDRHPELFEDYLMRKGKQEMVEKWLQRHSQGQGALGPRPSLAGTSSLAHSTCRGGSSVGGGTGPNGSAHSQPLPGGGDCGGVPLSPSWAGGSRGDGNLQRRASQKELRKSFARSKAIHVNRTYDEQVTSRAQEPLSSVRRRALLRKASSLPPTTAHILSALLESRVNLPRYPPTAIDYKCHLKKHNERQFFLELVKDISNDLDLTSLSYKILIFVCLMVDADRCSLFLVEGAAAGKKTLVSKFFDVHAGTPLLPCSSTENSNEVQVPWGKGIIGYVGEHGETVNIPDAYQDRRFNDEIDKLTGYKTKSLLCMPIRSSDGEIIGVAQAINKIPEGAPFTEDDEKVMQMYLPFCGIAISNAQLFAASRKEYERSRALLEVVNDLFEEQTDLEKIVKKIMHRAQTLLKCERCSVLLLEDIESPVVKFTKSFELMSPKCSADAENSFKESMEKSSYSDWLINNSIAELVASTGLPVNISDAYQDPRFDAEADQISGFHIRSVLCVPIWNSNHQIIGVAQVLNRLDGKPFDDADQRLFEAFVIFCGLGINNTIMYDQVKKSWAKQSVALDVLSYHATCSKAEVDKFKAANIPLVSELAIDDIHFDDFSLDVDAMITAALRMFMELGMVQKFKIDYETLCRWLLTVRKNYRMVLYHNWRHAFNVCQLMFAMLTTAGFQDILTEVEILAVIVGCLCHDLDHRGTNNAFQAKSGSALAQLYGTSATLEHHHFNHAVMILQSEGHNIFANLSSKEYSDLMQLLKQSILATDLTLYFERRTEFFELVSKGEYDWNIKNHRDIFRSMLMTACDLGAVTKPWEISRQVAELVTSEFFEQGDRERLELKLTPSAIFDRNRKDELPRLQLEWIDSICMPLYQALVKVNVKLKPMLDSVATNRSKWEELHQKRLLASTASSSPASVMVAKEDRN

PDE10A1 [10] = biological target: T1, PDE10A1; assay: biochemical
[11] = compound 20 μM plus Rolipram (20 μM)

Structure (SMILES): COc1ccc(C2CNC(=O)C2)cc1OC1CCCC1 (stereo not drawn) [Rolipram, rolipram, reference compound]
% apoptosis of normal T cells (normal T cells; compound 20 μM alone (DMSO)): 9.4%
Apoptosis (%) REC-1 Cells (B cell leukemia) (REC-1 cells; 20 μM): 56.7%
effect on apoptosis, in words (REC-1 cells): not affected
% apoptosis ([1]; Roli 0.2 μM, BC11-4 0 μM): 12.7%
% apoptosis ([1]; Roli 2.0 μM, BC11-4 0 μM): 24.9%
% apoptosis ([1]; Roli 20 μM, BC11-4 0 μM): 33.8%
% apoptosis ([2]; Roli 0.2 μM, BC11-8 0 μM): 13.2%
% apoptosis ([2]; Roli 2.0 μM, BC11-8 0 μM): 23.5%
% apoptosis ([2]; Roli 20 μM, BC11-8 0 μM): 29.9%
Apoptosis (%) JVM-2 Cells (B cell leukemia) (JVM-2 cells; 20 μM): 18.5%
effect on apoptosis, in words (JVM-2 cells): not affected
% apoptosis ([3]; compound alone (DMSO)): 46.7%
effect on apoptosis, in words [3]: not affected

IC50 (PDE10A1 [4]): 35 µM
IC50 (PDE5A1): 43 µM
IC50 (PDE6C): 25 µM
IC50 (PDE7A): 43 µM
Structure (SMILES): CCN(CC)C(=O)c1cc(-c2cccs2)nc2c1c(C)nn2-c1ccccc1C [BC11-15]

Structure (SMILES): CCCSc1nc2c(c(=O)n1-c1ccccc1)SCC2 [BC11-38]
phosphorylation of ATF1 (H295R cells [5]): PDE11A-specific increase
cAMP levels in H295R cells (H295R cells [6]): significantly increased
cAMP levels in HeLa cells (HeLa cells [7]): do not increase
cortisol production by H295R cells (H295R cells [8]): significantly increased
CREB phosphorylation in HeLa cells (HeLa cells [9]): do not increase

Structure (SMILES): Cn1c(NC(=O)c2ccccc2NC(=O)c2ccccc2)nc2ccccc21 [BC11-4]
% apoptosis of normal T cells (normal T cells; compound 20 μM alone (DMSO)): 14.3%
% apoptosis of normal T cells (normal T cells; [11]): 13.9%
cell viability of normal T cells (normal T cells): did not affect cell viability
Apoptosis (%) REC-1 Cells (B cell leukemia) (REC-1 cells; 40 μM): 100%
effect on apoptosis, in words (REC-1 cells): increased apoptosis
% apoptosis ([1]; BC11-4 0.1 μM, Roli 0 μM): 6.65%
% apoptosis ([1]; BC11-4 0.1 μM, Roli 0.2 μM): 10.4%
% apoptosis ([1]; BC11-4 0.1 μM, Roli 2.0 μM): 21.2%
% apoptosis ([1]; BC11-4 0.1 μM, Roli 20 μM): 28.8%
% apoptosis ([1]; BC11-4 1.0 μM, Roli 0 μM): 4.71%
% apoptosis ([1]; BC11-4 1.0 μM, Roli 0.2 μM): 10.8%
% apoptosis ([1]; BC11-4 1.0 μM, Roli 2.0 μM): 20.8%
% apoptosis ([1]; BC11-4 1.0 μM, Roli 20 μM): 29.6%
% apoptosis ([1]; BC11-4 10.0 μM, Roli 0 μM): 5.78%
% apoptosis ([1]; BC11-4 10.0 μM, Roli 0.2 μM): 4.93%
% apoptosis ([1]; BC11-4 10.0 μM, Roli 2.0 μM): 6.72%
% apoptosis ([1]; BC11-4 10.0 μM, Roli 20 μM): 15.8%
response of cells (apoptosis), in words ([1]; second patient): did not respond
Apoptosis (%) JVM-2 Cells (B cell leukemia) (JVM-2 cells; 40 μM): 32.3%
effect on apoptosis, in words (JVM-2 cells): increased apoptosis
% apoptosis ([3]; compound): 66.9%
% apoptosis ([3]; compound alone (DMSO)): 70.1%
effect on apoptosis, in words [3]: increase in apoptosis

IC50 (human PDE11A4): 0.05 µM
IC50 (PDE10A1 [10]): 0.2 µM
Structure (SMILES): C=CCSc1nnc2n(-c3ccccc3)c(=O)c3c(C)c(C)sc3n12 [BC11-8]
% apoptosis of normal T cells (normal T cells; compound 20 μM alone (DMSO)): 10.3%
% apoptosis of normal T cells (normal T cells; [11]): 14.7%
cell viability of normal T cells (normal T cells): did not affect cell viability
Apoptosis (%) REC-1 Cells (B cell leukemia) (REC-1 cells; 40 μM): 66.2%
effect on apoptosis, in words (REC-1 cells): increased apoptosis
% apoptosis ([2]; BC11-8 0.1 μM, Roli 0 μM): 6.31%
% apoptosis ([2]; BC11-8 0.1 μM, Roli 0.2 μM): 11.7%
% apoptosis ([2]; BC11-8 0.1 μM, Roli 2.0 μM): 22.7%
% apoptosis ([2]; BC11-8 0.1 μM, Roli 20 μM): 28.2%
% apoptosis ([2]; BC11-8 1.0 μM, Roli 0 μM): 7.63%
% apoptosis ([2]; BC11-8 1.0 μM, Roli 0.2 μM): 13.1%
% apoptosis ([2]; BC11-8 1.0 μM, Roli 2.0 μM): 19.5%
% apoptosis ([2]; BC11-8 1.0 μM, Roli 20 μM): 26.7%
% apoptosis ([2]; BC11-8 10.0 μM, Roli 0 μM): 21.8%
% apoptosis ([2]; BC11-8 10.0 μM, Roli 0.2 μM): 28.5%
% apoptosis ([2]; BC11-8 10.0 μM, Roli 2.0 μM): 40.1%
% apoptosis ([2]; BC11-8 10.0 μM, Roli 20 μM): 41.5%
effect on apoptosis, in words ([2]; third patient, additive with rolipram): increased apoptosis
Apoptosis (%) JVM-2 Cells (B cell leukemia) (JVM-2 cells; 40 μM): 28.8%
effect on apoptosis, in words (JVM-2 cells): increased apoptosis
% apoptosis ([3]; compound): 63.3%
% apoptosis ([3]; compound alone (DMSO)): 60.1%
effect on apoptosis, in words [3]: increase in apoptosis

Structure (SMILES): O=c1nc2sc3ccccc3n2c(=O)n1-c1ccccc1 [BC11-19]
cAMP levels in H295R cells (H295R cells [6]): consistently elevates
cortisol production by H295R cells (H295R cells [8]): consistently elevates
